Assay results taken from patent publication US11633415B2, “Compounds and methods useful for treating or preventing cancers” (priority 2017, dated 2023).
pIC50, pKd: −log10 of the molar value. Where two headings read alike, the source gives them in different places.

What was measured:
CSNK1A1 [1] = biological target: T1, CSNK1A1 (Homo sapiens (Human), UniProt P48729); assay: Kinase enzymatic IC50 (Carna Biosciences mobility shift assay); assay type: biochemical
Protocol: Enzymatic assays were performed using a mobility shift assay on the LabChip system. Purified kinase protein was incubated with ATP, substrate, and assay buffer (20 mM Hepes—pH 7.5; 5 mM MgCl2, and 0.01% Triton X-100). The assay reaction was initiated with 5 μM ATP and with each compound present. Compounds were tested at the KM,ATP for the protein target (GST-tagged full-length human CK1α, available from Carna Biosciences, Japan) or over a range of ATP concentrations between 5 μM and 9 μM. […] AC50 values were determined using phosphorylated and unphosphorylated substrates.

protein kinase A (PKA) = conditions: range stated jointly for PKA and insulin receptor kinase; cited from earlier work
insulin receptor kinase = insulin receptor kinase (Homo sapiens (Human), UniProt P06213); conditions: range stated jointly for PKA and insulin receptor kinase; cited from earlier work
Chain of insulin receptor kinase (P06213 28-1382): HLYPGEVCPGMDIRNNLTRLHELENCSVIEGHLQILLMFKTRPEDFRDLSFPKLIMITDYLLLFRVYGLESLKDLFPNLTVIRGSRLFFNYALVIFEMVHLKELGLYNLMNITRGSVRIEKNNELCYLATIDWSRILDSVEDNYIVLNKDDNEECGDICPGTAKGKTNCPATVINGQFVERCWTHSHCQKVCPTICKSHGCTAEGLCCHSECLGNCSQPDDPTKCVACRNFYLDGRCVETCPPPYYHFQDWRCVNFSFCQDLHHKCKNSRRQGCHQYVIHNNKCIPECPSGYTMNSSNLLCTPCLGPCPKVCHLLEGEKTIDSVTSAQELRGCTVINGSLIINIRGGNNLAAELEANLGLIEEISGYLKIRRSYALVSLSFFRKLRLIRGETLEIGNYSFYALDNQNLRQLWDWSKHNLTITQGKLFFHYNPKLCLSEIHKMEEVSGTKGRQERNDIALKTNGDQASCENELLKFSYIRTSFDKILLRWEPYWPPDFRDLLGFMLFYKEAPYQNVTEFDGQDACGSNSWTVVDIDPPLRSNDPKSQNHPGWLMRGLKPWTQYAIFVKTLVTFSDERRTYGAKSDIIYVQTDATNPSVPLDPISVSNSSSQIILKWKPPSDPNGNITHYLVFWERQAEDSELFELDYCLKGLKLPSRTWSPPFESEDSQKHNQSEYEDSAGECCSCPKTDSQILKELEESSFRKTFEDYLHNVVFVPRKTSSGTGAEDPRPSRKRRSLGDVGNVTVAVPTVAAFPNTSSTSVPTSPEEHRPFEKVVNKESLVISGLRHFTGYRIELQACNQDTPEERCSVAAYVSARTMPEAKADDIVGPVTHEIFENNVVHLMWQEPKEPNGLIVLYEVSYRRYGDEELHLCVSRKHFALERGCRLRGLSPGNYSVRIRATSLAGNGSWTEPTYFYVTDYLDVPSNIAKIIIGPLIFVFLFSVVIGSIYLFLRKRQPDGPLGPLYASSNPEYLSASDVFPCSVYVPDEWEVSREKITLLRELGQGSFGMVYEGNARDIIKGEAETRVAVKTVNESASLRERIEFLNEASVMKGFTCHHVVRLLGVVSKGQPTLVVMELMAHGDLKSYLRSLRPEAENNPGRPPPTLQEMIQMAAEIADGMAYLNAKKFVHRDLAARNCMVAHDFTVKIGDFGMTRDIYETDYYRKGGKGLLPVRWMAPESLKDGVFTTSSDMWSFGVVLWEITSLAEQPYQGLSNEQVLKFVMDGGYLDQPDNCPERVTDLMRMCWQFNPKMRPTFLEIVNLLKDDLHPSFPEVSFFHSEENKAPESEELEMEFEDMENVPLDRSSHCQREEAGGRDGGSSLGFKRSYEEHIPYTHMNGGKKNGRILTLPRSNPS

CSNK1D = CSNK1D (Homo sapiens (Human), UniProt P48730); assay: Kinomescan competition binding assay, confirmatory Kd; conditions: confirmatory testing
Chain of CSNK1D (P48730 whole entry): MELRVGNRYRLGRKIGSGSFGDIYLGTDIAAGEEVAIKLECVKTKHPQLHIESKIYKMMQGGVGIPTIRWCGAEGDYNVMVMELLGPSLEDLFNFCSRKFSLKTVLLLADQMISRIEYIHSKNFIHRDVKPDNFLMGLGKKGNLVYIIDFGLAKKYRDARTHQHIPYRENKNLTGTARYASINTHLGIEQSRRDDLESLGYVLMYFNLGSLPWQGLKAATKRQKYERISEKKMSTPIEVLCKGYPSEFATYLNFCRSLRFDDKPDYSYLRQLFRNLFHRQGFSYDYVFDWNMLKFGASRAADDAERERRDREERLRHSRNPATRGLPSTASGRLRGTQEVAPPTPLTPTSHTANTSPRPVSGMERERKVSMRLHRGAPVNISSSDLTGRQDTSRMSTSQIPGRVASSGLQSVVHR
Source text: (§1) The Kinomescan assay is a site-directed small molecule competition binding assay to quantitatively measure interactions between test compounds and more than 450 kinase assays. The assay employs DNA-tagged kinase proteins and a bead-immobilized kinase ligand. Active test compounds compete with the immobilized ligand and decrease the amount of bead-bound kinase. The assay result is detected using a multiplex quantitative PCR approach.

CSNK1A1 [2] = biological target: T1, CSNK1A1; assay: as above
Source text: as §1, with “Active test compounds compete with the immobilized ligand and decrease the amount of bead-bound kinase.” left out

HT-29 = assay: Cell viability by ATP abundance at 5 days (Cell Titer Glo); assay type: cell-based
Protocol: In addition to its role as a target in hematologic malignancies, CSNK1A1 expression is also essential to certain epithelial cancer cell lines. […] Results from each independent RNA interference construct were summarized into a single gene-level score, and the colorectal distribution of sensitivities was evaluated against the other lineages by the Mann-Whitney test as shown in FIG. 4A. […] Cell viability was assessed by ATP abundance at 5 days using the Cell Titer Glo assay.
Cell viability assays were conducted against colorectal carcinoma cell line HT29. Cells were plated in wells and at 24 hours after plating, compounds were added to determine their effect on cell viability at various dosages. After 48 hours from compound administration, the cell viability was determined and the IC50 values were calculated. […] FIG. 4B illustrates the results of another cell viability measurement and IC50 value for Compound 1 assessed by ATP abundance on HT29 at 5 days.

[3] = system: more than 450 kinase assays; assay: Kinome-wide profiling using the Kinomescan assay; assay type: binding
Source text: as §1

[4] = Table 1, CSNK1A1 inhibitors, read-out: IC50

T1 sequence (P48729 whole entry): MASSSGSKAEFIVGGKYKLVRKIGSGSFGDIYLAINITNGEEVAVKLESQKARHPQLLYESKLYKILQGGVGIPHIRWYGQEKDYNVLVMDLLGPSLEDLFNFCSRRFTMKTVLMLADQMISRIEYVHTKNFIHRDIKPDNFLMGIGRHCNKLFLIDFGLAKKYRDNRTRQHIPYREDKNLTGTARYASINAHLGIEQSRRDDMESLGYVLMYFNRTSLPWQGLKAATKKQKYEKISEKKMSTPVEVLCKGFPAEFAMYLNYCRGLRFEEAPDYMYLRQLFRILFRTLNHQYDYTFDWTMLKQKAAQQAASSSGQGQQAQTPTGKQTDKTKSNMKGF

In the case of `Nc1ncnc2c1c(I)cn2[C@@H]1O[C@H](CO)[C@@H](O)[C@H]1O` [5-iodotubercidin, 5-Iodo-7-β-D-ribofuranosyl-7H-pyrrolo[2,3-d]pyrimidin-4-amine, reference compound], the pIC50 (CSNK1A1 [1]; [4]) is given as 6.54, the pIC50 (CSNK1A1 [1]; known inhibitors, background text (rounded Table 1 values), read-out: IC50 against CSNK1A1) is given as 6.54 and the pIC50 (protein kinase A (PKA)) is given as 4.55 to 6.40. For the same compound, the pIC50 (insulin receptor kinase) was 4.55 to 6.40.

`CCN1CCN(c2nc3ccccc3nc2C(C#N)C(=O)OC2CCCCC2)CC1` (centres unmarked) [compound 1, cyclohexyl 2-cyano-2-(3-(4-ethylpiperazin-1-yl)quinoxalin-2-yl)acetate] showed a pKd (CSNK1D) of 5.49, a pIC50 (CSNK1A1 [1]) of 5.00 and a pIC50 (CSNK1A1 [1]; [4]) of 4.89. The pKd (CSNK1A1 [2]) was 5.77, the “cell viability of HT-29” value (HT-29) was “inhibited” and the “binding specificity in kinome-wide profiling” value ([3]; 450 kinases tested at a single dose of 10 μM) was “remarkable specificity for compound binding to CSNK1A1”. For the same compound, the “number of kinases bound” value ([3]; out of over 400 kinases tested) was “six”.
